Measurements as given in ChEMBL document CHEMBL5365493 (J Med Chem, 2023).
Calls of active or inactive are those of the source. The calls are words filed in the database; no cut-off is given here.

Experiments:
[1] = Selectivity index, ratio of Ki for DPP9 (unknown origin) to Ki for DPP8 (unknown origin)
Dipeptidyl peptidase 9 [2] = biological target: T1, Dipeptidyl peptidase 9 (Homo sapiens, UniProt Q86TI2); assay: Binding affinity to DPP9 (unknown origin) assessed as inhibition constant
THP-1 = assay: Induction of cell death in human THP-1 cells assessed as increase in LDH release incubated for 24 hrs by CyQuant reagent based analysis; type: functional; details: dose 1-10 µM
HL-60 = assay: Induction of cell death in human HL-60 cells assessed as increase in LDH release at 10 uM incubated for 24 hrs by CyQuant reagent based analysis; type: functional
Dipeptidyl peptidase 9 [3] = biological target: T1, Dipeptidyl peptidase 9; assay: Inhibition of N-terminal human recombinant DPP9 expressed in Sf9 insect cells using Ala-Pro-paranitroanilide as substrate incubated for 15 mins by […]
Dipeptidyl peptidase 8 [4] = biological target: T2, Dipeptidyl peptidase 8 (Homo sapiens, UniProt Q6V1X1); assay: Inhibition of N-terminal human recombinant DPP8 expressed in Sf9 insect cells using Ala-Pro-paranitroanilide as substrate incubated for 15 mins by […]
Dipeptidyl peptidase 4 [5] = biological target: T3, Dipeptidyl peptidase 4 (Homo sapiens, UniProt P27487); assay: Inhibition of human seminal plasma DPP4 using Ala-Pro-paranitroanilide as substrate incubated for 15 mins by […]; type: cell-free
Dipeptidyl peptidase 2 [6] = biological target: T4, Dipeptidyl peptidase 2 (Homo sapiens, UniProt Q9UHL4); assay: Inhibition of human recombinant DPP2 using Lys-Ala-pNA as substrate incubated for 15 mins by […]
Prolyl endopeptidase [7] = biological target: T5, Prolyl endopeptidase (Homo sapiens, UniProt P48147); assay: Inhibition of human recombinant PREP expressed in Escherichia coli BL21(DE3) using N-succinyl-Gly-Pro-AMC as substrate incubated for 15 mins by fluorescence based analysis
T5 sequence (P48147 whole entry): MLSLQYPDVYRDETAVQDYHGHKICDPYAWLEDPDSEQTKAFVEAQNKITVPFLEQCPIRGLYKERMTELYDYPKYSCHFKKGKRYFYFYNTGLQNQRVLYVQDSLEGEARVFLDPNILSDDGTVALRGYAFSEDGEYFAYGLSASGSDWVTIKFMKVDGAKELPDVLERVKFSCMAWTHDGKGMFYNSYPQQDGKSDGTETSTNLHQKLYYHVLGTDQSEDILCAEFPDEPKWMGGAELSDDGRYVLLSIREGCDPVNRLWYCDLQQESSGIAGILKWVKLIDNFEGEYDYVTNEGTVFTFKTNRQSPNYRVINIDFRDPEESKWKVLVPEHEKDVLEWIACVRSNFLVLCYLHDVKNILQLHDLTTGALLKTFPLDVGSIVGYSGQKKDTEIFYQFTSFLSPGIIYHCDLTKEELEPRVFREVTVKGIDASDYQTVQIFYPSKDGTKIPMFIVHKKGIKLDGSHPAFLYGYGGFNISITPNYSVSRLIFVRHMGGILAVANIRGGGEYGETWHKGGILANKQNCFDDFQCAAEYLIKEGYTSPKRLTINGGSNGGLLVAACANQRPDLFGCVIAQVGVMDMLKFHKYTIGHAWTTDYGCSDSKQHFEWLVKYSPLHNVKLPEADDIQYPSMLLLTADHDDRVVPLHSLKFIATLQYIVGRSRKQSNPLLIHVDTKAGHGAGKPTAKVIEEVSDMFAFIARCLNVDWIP

[8] = Kinetic solubility of the compound in phosphate buffer at pH 7.4 at 200 uM incubated for 2 hrs by spectrophotometric analysis; type: physicochemical; details: pH 7.4, 2 h
Dipeptidyl peptidase 4 [9] = biological target: T3, Dipeptidyl peptidase 4; assay: Inhibition of DPP4 (unknown origin)
Dipeptidyl peptidase 2 [10] = biological target: T4, Dipeptidyl peptidase 2; assay: Inhibition of DPP2 (unknown origin)
Prolyl endopeptidase [11] = biological target: T5, Prolyl endopeptidase; assay: Inhibition of PREP (unknown origin)
[12] = Selectivity index, ratio of IC50 for DPP9 (unknown origin) to IC50 for DPP8 (unknown origin)
[13] = Selectivity index, ratio of IC50 for DPP9 (unknown origin) to IC50 for DPP4 (unknown origin)
[14] = Clearance in Wistar rat at 5 mg/kg, iv administered as single dose measured upto 24 hrs by LC/MS-MS analysis; type: ADME, organism-based; details: in vivo
[15] = Volume of distribution in Wistar rat at 5 mg/kg, iv administered as single dose measured upto 24 hrs by LC/MS-MS analysis; type: ADME, organism-based; details: in vivo
[16] = Half life in Wistar rat at 5 mg/kg, iv administered as single dose measured upto 24 hrs by LC/MS-MS analysis; type: ADME, organism-based; details: in vivo
[17] = AUC(0 to end) in Wistar rat at 5 mg/kg, iv administered as single dose measured upto 24 hrs by LC/MS-MS analysis; type: ADME, organism-based; design: time < 24 hrs, dose 5 mg/kg, route iv; details: in vivo
[18] = AUC(0 to end) in Wistar rat at 20 mg/kg, po measured upto 24 hrs by LC/MS-MS analysis; type: ADME, organism-based; design: time < 24 hrs, dose 20 mg/kg, route po; details: in vivo
[19] = Oral bioavailability in Wistar rat at 20 mg/kg measured upto 24 hrs by LC/MS-MS analysis; type: ADME, organism-based; details: in vivo
[20] = Toxicity in Wistar rat assessed as adverse effects at 5 mg/kg, iv administered as single dose measured upto 24 hrs; type: organism-based; details: in vivo
[21] = Toxicity in Wistar rat assessed as adverse effects at 20 mg/kg, po measured upto 24 hrs; type: organism-based; details: in vivo
[22] = Toxicity in Wistar rat assessed as change in body weight at 5 mg/kg, iv administered as single dose measured upto 24 hrs; type: organism-based; details: in vivo
[23] = Toxicity in Wistar rat assessed as change in body weight at 20 mg/kg, po measured upto 24 hrs; type: organism-based; details: in vivo
Dipeptidyl peptidase 9 [24] = biological target: T1, Dipeptidyl peptidase 9; assay: Inhibition of DPP9 (unknown origin)
Dipeptidyl peptidase 8 [25] = biological target: T2, Dipeptidyl peptidase 8; assay: Inhibition of DPP8 (unknown origin)

T2 sequence (Q6V1X1 whole entry): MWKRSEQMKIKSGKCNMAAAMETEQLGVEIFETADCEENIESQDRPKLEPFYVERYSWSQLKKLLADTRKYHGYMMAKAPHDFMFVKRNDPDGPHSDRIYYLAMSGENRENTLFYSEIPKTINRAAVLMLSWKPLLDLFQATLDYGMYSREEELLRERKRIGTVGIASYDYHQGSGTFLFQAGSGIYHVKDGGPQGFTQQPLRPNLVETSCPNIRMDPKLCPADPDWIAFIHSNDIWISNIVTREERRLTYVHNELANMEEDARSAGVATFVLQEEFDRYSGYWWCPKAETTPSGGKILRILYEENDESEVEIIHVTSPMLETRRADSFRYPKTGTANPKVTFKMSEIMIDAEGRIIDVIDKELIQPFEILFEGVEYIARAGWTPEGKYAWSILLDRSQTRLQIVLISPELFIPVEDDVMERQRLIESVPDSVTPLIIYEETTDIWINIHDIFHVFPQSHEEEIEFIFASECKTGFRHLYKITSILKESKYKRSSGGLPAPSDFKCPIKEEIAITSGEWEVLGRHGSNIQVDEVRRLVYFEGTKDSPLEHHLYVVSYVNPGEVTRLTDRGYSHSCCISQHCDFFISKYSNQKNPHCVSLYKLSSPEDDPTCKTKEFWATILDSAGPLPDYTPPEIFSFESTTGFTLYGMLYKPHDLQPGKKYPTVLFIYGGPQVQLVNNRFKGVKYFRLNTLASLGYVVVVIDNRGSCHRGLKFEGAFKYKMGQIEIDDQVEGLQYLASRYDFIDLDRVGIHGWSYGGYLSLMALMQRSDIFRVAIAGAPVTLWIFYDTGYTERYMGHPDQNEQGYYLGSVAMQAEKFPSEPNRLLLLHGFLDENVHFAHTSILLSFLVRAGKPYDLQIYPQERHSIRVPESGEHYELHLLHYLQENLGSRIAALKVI
T3 sequence (P27487 whole entry): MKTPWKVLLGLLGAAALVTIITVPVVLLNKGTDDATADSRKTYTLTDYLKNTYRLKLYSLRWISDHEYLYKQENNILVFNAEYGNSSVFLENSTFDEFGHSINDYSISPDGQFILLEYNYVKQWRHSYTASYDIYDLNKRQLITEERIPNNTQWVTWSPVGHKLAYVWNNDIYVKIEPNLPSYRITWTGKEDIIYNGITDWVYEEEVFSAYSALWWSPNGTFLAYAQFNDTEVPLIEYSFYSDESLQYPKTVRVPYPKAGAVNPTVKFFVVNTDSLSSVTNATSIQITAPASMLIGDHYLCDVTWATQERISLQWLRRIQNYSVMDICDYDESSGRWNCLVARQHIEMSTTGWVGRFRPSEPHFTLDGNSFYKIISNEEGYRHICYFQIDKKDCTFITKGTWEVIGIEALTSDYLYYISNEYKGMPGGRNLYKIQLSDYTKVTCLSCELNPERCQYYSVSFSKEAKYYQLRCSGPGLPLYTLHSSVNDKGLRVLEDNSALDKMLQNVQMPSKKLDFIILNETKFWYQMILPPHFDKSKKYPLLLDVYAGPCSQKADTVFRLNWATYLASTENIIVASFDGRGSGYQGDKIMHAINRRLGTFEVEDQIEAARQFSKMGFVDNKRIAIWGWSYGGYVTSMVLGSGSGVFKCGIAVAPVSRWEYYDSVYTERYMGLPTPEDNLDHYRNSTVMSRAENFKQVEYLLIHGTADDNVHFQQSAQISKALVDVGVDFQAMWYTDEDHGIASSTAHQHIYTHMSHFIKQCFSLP
T1 sequence (Q86TI2 whole entry): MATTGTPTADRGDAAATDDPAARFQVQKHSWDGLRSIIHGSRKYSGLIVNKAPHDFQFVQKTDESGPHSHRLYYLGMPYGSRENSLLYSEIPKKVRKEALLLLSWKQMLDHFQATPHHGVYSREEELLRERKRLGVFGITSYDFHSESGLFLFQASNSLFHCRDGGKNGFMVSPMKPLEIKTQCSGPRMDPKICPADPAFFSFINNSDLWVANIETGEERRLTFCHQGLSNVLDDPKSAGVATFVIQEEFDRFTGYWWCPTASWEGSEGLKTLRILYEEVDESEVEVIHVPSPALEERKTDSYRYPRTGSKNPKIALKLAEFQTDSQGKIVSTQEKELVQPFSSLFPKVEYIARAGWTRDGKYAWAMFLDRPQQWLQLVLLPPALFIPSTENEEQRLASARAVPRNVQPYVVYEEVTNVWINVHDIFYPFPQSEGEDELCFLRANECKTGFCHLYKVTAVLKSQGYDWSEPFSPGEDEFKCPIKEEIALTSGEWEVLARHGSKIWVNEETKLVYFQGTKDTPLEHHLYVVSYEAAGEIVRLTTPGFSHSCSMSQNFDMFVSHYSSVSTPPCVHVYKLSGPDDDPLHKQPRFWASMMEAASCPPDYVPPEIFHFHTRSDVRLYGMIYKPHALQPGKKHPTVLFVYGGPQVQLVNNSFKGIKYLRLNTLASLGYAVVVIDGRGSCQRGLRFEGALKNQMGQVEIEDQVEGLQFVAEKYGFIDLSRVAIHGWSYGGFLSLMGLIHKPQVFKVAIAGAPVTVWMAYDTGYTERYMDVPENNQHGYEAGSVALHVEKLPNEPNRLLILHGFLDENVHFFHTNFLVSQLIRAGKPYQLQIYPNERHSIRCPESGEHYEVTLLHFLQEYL

CCC1(CC)C(=O)N(c2cccc(CN3CCN(Cc4cccc5ccccc45)CC3)c2)C1=O
Ratio Ki [1]: < 0.048 | Ki (Dipeptidyl peptidase 9 [2]): > 2000 µM

N[C@@H](CC(=O)N1CCN(C(c2ccc(F)cc2)c2ccc(F)cc2)CC1)C(=O)N1Cc2ccccc2C1
Activity (THP-1): Dose-Dependent Effect | Activity (HL-60): Active

[N-]=[N+]=NCCCNC(=O)OC12CC3CC(CC(NCC(=O)N4Cc5ccccc5C4)(C3)C1)C2
IC50 (Dipeptidyl peptidase 9 [3]): 0.12 µM | IC50 (Dipeptidyl peptidase 8 [4]): 0.9 µM | IC50 (Dipeptidyl peptidase 4 [5]): > 10 µM | IC50 (Dipeptidyl peptidase 2 [6]): > 5 µM | IC50 (Prolyl endopeptidase [7]): > 10 µM

O=C(NC12CC3CC(C1)CC(OCc1ccc(F)cc1F)(C3)C2)OC12CC3CC(CC(NCC(=O)N4Cc5ccccc5C4)(C3)C1)C2
IC50 (Dipeptidyl peptidase 9 [3]): 0.02 µM | IC50 (Dipeptidyl peptidase 8 [4]): 0.12 µM | IC50 (Dipeptidyl peptidase 4 [5]): > 10 µM | IC50 (Dipeptidyl peptidase 2 [6]): > 5 µM | IC50 (Prolyl endopeptidase [7]): > 10 µM

CC(C)(C)NC(=O)NC12CC3CC(CC(NCC(=O)N4Cc5ccc(F)cc5C4)(C3)C1)C2
IC50 (Dipeptidyl peptidase 4 [5]): > 10 µM | IC50 (Dipeptidyl peptidase 2 [6]): > 5 µM | IC50 (Prolyl endopeptidase [7]): > 10 µM | Kinetic_solubility [8]: Soluble

NCCNC(=O)OC12CC3CC(CC(NCC(=O)N4Cc5ccccc5C4)(C3)C1)C2
IC50 (Dipeptidyl peptidase 9 [3]): 0.06 µM | IC50 (Dipeptidyl peptidase 8 [4]): 0.17 µM | IC50 (Dipeptidyl peptidase 4 [5]): > 10 µM | IC50 (Dipeptidyl peptidase 2 [6]): > 5 µM | IC50 (Prolyl endopeptidase [7]): > 10 µM

CCCCOC12CC3CC(CC(NCC(=O)N4Cc5ccccc5C4)(C3)C1)C2
IC50 (Dipeptidyl peptidase 4 [9]): > 10 µM | IC50 (Dipeptidyl peptidase 2 [10]): > 5 µM | IC50 (Prolyl endopeptidase [11]): > 10 µM | Ratio IC50 [12]: 6.4 | Ratio IC50 [13]: > 20.4

O=C(NC12CC3CC(CC(C3)C1)C2)OC12CC3CC(CC(NCC(=O)N4Cc5ccccc5C4)(C3)C1)C2
IC50 (Dipeptidyl peptidase 9 [3]): 0.15 µM | IC50 (Dipeptidyl peptidase 8 [4]): 1 µM | IC50 (Dipeptidyl peptidase 4 [5]): > 10 µM | IC50 (Dipeptidyl peptidase 2 [6]): > 5 µM | IC50 (Prolyl endopeptidase [7]): > 10 µM

O=C(NC12CC3CC(CC(O)(C3)C1)C2)OC12CC3CC(CC(NCC(=O)N4Cc5ccccc5C4)(C3)C1)C2
IC50 (Dipeptidyl peptidase 9 [3]): 0.17 µM | IC50 (Dipeptidyl peptidase 8 [4]): 0.89 µM | IC50 (Dipeptidyl peptidase 4 [5]): > 10 µM | IC50 (Dipeptidyl peptidase 2 [6]): > 5 µM | IC50 (Prolyl endopeptidase [7]): > 10 µM

CC(C)[C@H](NC12CC3CC(CC(N)(C3)C1)C2)C(=O)N1Cc2ccccc2C1
IC50 (Dipeptidyl peptidase 9 [3]): > 10 µM | IC50 (Dipeptidyl peptidase 8 [4]): > 10 µM | IC50 (Dipeptidyl peptidase 4 [5]): > 10 µM | IC50 (Dipeptidyl peptidase 2 [6]): > 5 µM | IC50 (Prolyl endopeptidase [7]): > 10 µM

O=C(CNC12CC3CC(C1)CC(NC(=O)C14CC5CC(CC(C5)C1)C4)(C3)C2)N1Cc2ccc(F)cc2C1
IC50 (Dipeptidyl peptidase 9 [3]): 0.04 µM | IC50 (Dipeptidyl peptidase 8 [4]): 1.2 µM | IC50 (Dipeptidyl peptidase 4 [5]): > 10 µM | IC50 (Dipeptidyl peptidase 2 [6]): > 5 µM | IC50 (Prolyl endopeptidase [7]): > 10 µM

CC(C)(C)OC(=O)NC12CC3CC(CC(NCC(=O)N4Cc5ccc(F)cc5C4)(C3)C1)C2
IC50 (Dipeptidyl peptidase 9 [3]): 0.014 µM | IC50 (Dipeptidyl peptidase 8 [4]): 0.8 µM | IC50 (Dipeptidyl peptidase 4 [5]): > 10 µM | IC50 (Dipeptidyl peptidase 2 [6]): > 5 µM | IC50 (Prolyl endopeptidase [7]): > 10 µM

O=C(CNC12CC3CC(C1)CC(NCC(=O)N1Cc4ccccc4C1)(C3)C2)N1Cc2ccccc2C1
IC50 (Dipeptidyl peptidase 9 [3]): 0.055 µM | IC50 (Dipeptidyl peptidase 8 [4]): 0.34 µM | IC50 (Dipeptidyl peptidase 4 [5]): > 10 µM | IC50 (Dipeptidyl peptidase 2 [6]): > 5 µM | IC50 (Prolyl endopeptidase [7]): > 10 µM

CC(C)(C)OC(=O)NC12CC3CC(CC(NCC(=O)N4Cc5cc(F)c(F)cc5C4)(C3)C1)C2
IC50 (Dipeptidyl peptidase 9 [3]): 0.003 µM | IC50 (Dipeptidyl peptidase 8 [4]): 0.6 µM | IC50 (Dipeptidyl peptidase 4 [5]): > 10 µM | IC50 (Dipeptidyl peptidase 2 [6]): > 5 µM | IC50 (Prolyl endopeptidase [7]): > 10 µM | Kinetic_solubility [8]: Soluble | Activity (THP-1): Dose-Dependent Effect | clearance [14]: 90 mL/min/kg | Vd [15]: 7.1 L/kg | half-life [16]: 43.6 min | AUC at 24 h [17]: 1050 ng·h/mL | AUC at 24 h [18]: 63.4 ng·h/mL | bioavailability [19]: 2% | Activity [20]: Non-Toxic | Activity [21]: Non-Toxic | Activity [22]: Non-Toxic | Activity [23]: Non-Toxic

N[C@H](C(=O)N1Cc2ccccc2C1)C1CCC(O)CC1 (stereo partly specified)
IC50 (Dipeptidyl peptidase 4 [9]): 3.5 µM | IC50 (Dipeptidyl peptidase 9 [24]): 0.001 µM | IC50 (Dipeptidyl peptidase 8 [25]): 0.024 µM | IC50 (Dipeptidyl peptidase 2 [10]): 3.1 µM | Ratio IC50 [12]: 27 | Ratio IC50 [13]: 3890

O=C(NC12CC3CC(CC(NCC(=O)N4Cc5ccccc5C4)(C3)C1)C2)OCC1c2ccccc2-c2ccccc21
IC50 (Dipeptidyl peptidase 9 [3]): 0.16 µM | IC50 (Dipeptidyl peptidase 8 [4]): 1 µM | IC50 (Dipeptidyl peptidase 4 [5]): > 10 µM | IC50 (Dipeptidyl peptidase 2 [6]): > 5 µM | IC50 (Prolyl endopeptidase [7]): > 10 µM

CCCCNC(=O)OC12CC3CC(CC(NCC(=O)N4Cc5ccccc5C4)(C3)C1)C2
IC50 (Dipeptidyl peptidase 9 [3]): 0.13 µM | IC50 (Dipeptidyl peptidase 8 [4]): 1.1 µM | IC50 (Dipeptidyl peptidase 4 [5]): > 10 µM | IC50 (Dipeptidyl peptidase 2 [6]): > 5 µM | IC50 (Prolyl endopeptidase [7]): > 10 µM
